The text below walks through data of US20130085105A1, “Transdermal Administration Of Peptides” (The Provost, Fellows and Scholars of the College of Holy …, priority 2010, published 2013).

Series [1] is described as follows: In vitro transdermal permeation, diffusion cell, hairless mouse skin. The series is classed as in vitro ADME, hairless mice. From the text: The abdominal skin from male hairless mice (mice of the HRS strain carrying a mutant Hr gene (hr/hr)) aged 6-8 weeks was cleaned of any subcutaneous fat with blood vessels while maintaining the integrity of the viable epidermis and SC. The excised skin was used immediately after preparation and was not stored prior to use.
A custom made finite dosing diffusion cell (AGB Scientific, Dublin, Ireland, FIG. 1) based upon and modified from the Keshary-Chien type diffusion cell was used for in vitro permeation studies.
Three to five diffusion cells were used in each permeation experiment and monitoring was performed over a 48 hour period. The cells were linked in series to a thermostatically controlled circulation bath set at 35° C. to mimic human skin surface temperature. Each cell was placed on a stir-plate set at a defined stirring rate of 1,000 rpm. The surface area for permeation provided by each cell was 3.14 cm^2.
Data collected from each permeation study included:
1) the average maximum flux obtained in 48 hours (Jmax),
2) the total absorption characterized as the total weight of peptide delivered transdermally into the receiver compartment over a 48 hour period,
3) the lag time to detectable flux which was equivalent to the latest sampling time at which no peptide was detectable by HPLC analysis of the receiver solution, and
4) an equivalent 48-hour steady state flux was determined by obtaining the slope of the best-fit line for a plot of cumulative flux per unit area versus time (described by McDaid, D. M. et al., Int. J. Pharm., 133:71-83, 1996).
Fresh hairless mouse skin samples or fresh or freshly thawed pig skin samples were mounted onto the diffusion cell with the SC topmost and in contact with the donor system. A rubber or plastic ring was placed on top of the skin sample to secure it in position. The combination of the diffusion cell top, the skin and the rubber ring was securely fastened together by means of a threaded cap. A recorded volume of receiver solution was added to the receiver compartment and maintained at 35° C. The receiver solution was 60/40 (v/v) PBS/propylene glycol (pH 7.1). The propylene glycol fraction was used to increase the solubility of the somatostatin-fatty acid salts. Previous work reported by Morgan et al. (J. Pharm. Sci., 87:1213-1218, 1998) has shown that a 50/50 water/propylene glycol receptor solution had no detrimental effect on the barrier integrity of both hairless mouse and porcine skin.
The receiver solution was allowed to equilibrate at 35° C. for 30 minutes. […] A narrow-bore hypodermic needle was used to withdraw 1 ml samples from the receiver compartment via the sampling port; at each sampling time, an equal volume of drug-free receiver solution was immediately added back to the receiver compartment. Samples were analyzed by HPLC.
HPLC determination of peptide content in the receiver solution along with the known surface area of skin used (3.14 cm^2) allowed for calculation of transdermal flux (in units of μg/cm^2/hr) for each time point. Panels 1 and 2 of FIG. 2 show flux […] profiles for the myristate, octanoate, decanoate, linoleate, nonanote, acetate and laurate […]
Once lead candidate somatostatin-fatty acid salts had been selected on the basis of in vitro permeation in a DMSO solution, the effect of different solvents and penetration enhancers on permeation was assessed. The concentration of the donor solution corresponded to 5 mg/ml free base peptide for all experiments and all donor solutions were equilibrated at 37° C. for one hour prior to use. These experiments were carried out using hairless mouse skin and pigskin barriers.

Series [2] is described as follows: Partition coefficients n-octanol/deionized water and n-octanol/PBS. In kind it is physicochemical. Particulars: 24 hours; for Log KOPBS / O/PBS Coefficient (KOPBS): n-octanol/PBS pH 7.4, 37° C.; for Log KOW / O/W Coefficient (KOW): n-octanol/deionized water, 37° C. How it is done: The partition coefficients for all somatostatin-fatty acid salts in either n-octanol/deionized water or n-octanol/PBS (pH 7.4) were determined. The partition coefficient is the concentration of Compound A or Compound B in the n-octanol phase divided by the concentration in the aqueous or PBS phase.
An accurately weighed sample of each salt was placed into 4 ml HPLC vials sealed with caps containing pierceable silicone septa and dissolved in 2 ml n-octanol. Two ml of either deionized water or PBS were added to each sample; the vials were vortexed vigorously and incubated at 37° C. with agitation for 24 hours in a shaker-incubator at 400 rpm.
Following incubation, two samples were withdrawn from each vial. Once the layers had fully partitioned, a syringe was used to draw a sample of the aqueous phase or the n-octanol phase. Samples from each phase were diluted appropriately with deionized or methanol prior to HPLC analysis.

Where [3] appears, read: 4.3 mg/ml in DMSO +1% (v/v) oleic acid.
The mark [4] stands for this setting: donor DMSO, approx. 5 mg/ml free base peptide (4.9 mg/ml Compound A oleate, 5.2 mg/ml Compound A acetate).
Setting [5] is: donor DMSO, approx. 5 mg/ml free base peptide (4.9 mg/ml Compound A oleate, 5.2 mg/ml Compound A acetate), 48 hr.

Take `CC(C)[C@@H]1NC(=O)[C@H](CCCCN)NC(=O)[C@@H](Cc2c[nH]c3ccccc23)NC(=O)[C@H](Cc2ccc(O)cc2)NC(=O)[C@@H](NC(=O)[C@H](N)Cc2ccc3ccccc3c2)CSSC[C@@H](C(=O)N[C@H](C(N)=O)[C@@H](C)O)NC1=O` [Compound A di-acetate, D-2-Nal-c(Cys-Tyr-D-Trp-Lys-Val-Cys)-Thr-NH2, reference compound]: in series [1] (setting [3]), the Jmax was found to be 53.576 μg/cm^2/hr, the Jss is on record as 1.873 μg/cm^2/hr, the “Lag Time” value amounted to 0.0 h and the “Total Absorption” value stood at 387.78 μg/48 hr. Further, the “effect of 1% (v/v) free oleic acid on flux” value in series [1] (donor DMSO) is recorded as “increase of flux”. In addition, in series [1] (setting [4]), the “Lag Time” value worked out at 29.5 h and the “Total Absorption” value is listed as 48.08 μg/48 hr. For the same compound, in series [1] (setting [5]), the Jmax came out at 0.320 μg/cm^2/hr and the Jss amounted to 0.240 μg/cm^2/hr.

“D-2-Nal-c(Cys-Tyr-D-Trp-Lys-Val-Cys)-Thr-NH2 [Compound A di-decanoate]”: in series [2], the “Log KOPBS” value turned out to be 0.844, the “O/PBS Coefficient (KOPBS)” value is 6.99, the “Log KOW” value was found to be 2.325 and the “O/W Coefficient (KOW)” value turned out to be 211.53.

On to “D-2-Nal-c(Cys-Tyr-D-Trp-Lys-Val-Cys)-Thr-NH2 [Compound A di-laurate]”, for which, in series [2], the “Log KOPBS” value is 0.854, the “O/PBS Coefficient (KOPBS)” value is listed as 7.15, the “Log KOW” value came out at 2.943 and the “O/W Coefficient (KOW)” value stood at 876.40.

Consider “D-2-Nal-c(Cys-Tyr-D-Trp-Lys-Val-Cys)-Thr-NH2 [Compound A di-linoleate]”, for which, in series [2], the “Log KOPBS” value is on record as 0.866, the “O/PBS Coefficient (KOPBS)” value came out at 7.35, the “Log KOW” value is on record as 1.917 and the “O/W Coefficient (KOW)” value is 82.52.

On to “D-2-Nal-c(Cys-Tyr-D-Trp-Lys-Val-Cys)-Thr-NH2 [Compound A di-myristate]”, for which, in series [2], the “Log KOPBS” value was found to be 0.806, the “O/PBS Coefficient (KOPBS)” value was found to be 6.40, the “Log KOW” value is recorded as 2.610 and the “O/W Coefficient (KOW)” value stood at 407.50.

For “D-2-Nal-c(Cys-Tyr-D-Trp-Lys-Val-Cys)-Thr-NH2 [Compound A di-nonanoate]”, in series [2], the “Log KOPBS” value worked out at 0.811, the “O/PBS Coefficient (KOPBS)” value came to 6.47, the “Log KOW” value worked out at 2.723 and the “O/W Coefficient (KOW)” value was found to be 528.50.

For the compound “D-2-Nal-c(Cys-Tyr-D-Trp-Lys-Val-Cys)-Thr-NH2 [Compound A di-octanoate]”, in series [2], the “Log KOPBS” value is listed as 0.827, the “O/PBS Coefficient (KOPBS)” value was 6.71, the “Log KOW” value worked out at 2.794 and the “O/W Coefficient (KOW)” value stood at 622.86.

On to “[4-(2-hydroxyethyl)]-1-piperazinylacetyl-D-Phe-c(Cys-Tyr-D-Trp-Lys-Abu-Cys)-Thr-NH2 [Compound B di-acetate]”, for which, in series [2], the “Log KOPBS” value is on record as −2.000, the “O/PBS Coefficient (KOPBS)” value came out at 0.01, the “Log KOW” value was −2.000 and the “O/W Coefficient (KOW)” value came out at 0.01.
